The values that follow come from US8188292B2, “Insecticidal N-substituted (heteroaryl)alkyl sulfilimines” (Dow AgroSciences, LLC, priority 2006, dated 2012).

Experiment [1] deals with green peach aphid (Myzus persicae). The experiment can be described thus: Insecticidal test for green peach aphid in foliar spray assay. The format is in vivo. Details: key to GPA 50: % control at 50 ppm against green peach aphid in foliar spray tests / GPA 200: % control at 200 ppm against green peach aphid in foliar spray tests: A: 90-100; B: 80-89; C: 70-79; D: 60-69; E: 50-59; F: Less than 50; G: Inactive; H: Not tested. As to conditions: foliar spray on cabbage seedlings, 3 days, Corrected % Control (Abbott); for pest or weed control at 200 ppm / pest or weed control at 50 ppm: Myzus persicae, 72 h; for pest or weed control at 200 ppm: read-out: GPA 200: % control at 200 ppm against green peach aphid in foliar spray tests; for pest or weed control at 50 ppm: read-out: GPA 50: % control at 50 ppm against green peach aphid in foliar spray tests. As to the method: The compounds identified in the foregoing examples were tested against cotton aphid and green peach aphid using procedures described hereinafter. Squash with fully expanded cotyledon leaves were trimmed to one cotyledon per plant and infested with cotton aphid (wingless adult and nymph) 1 day prior to chemical application. Each plant was examined before chemical application to ensure proper infestation (ca. 30-70 aphids per plant). Compounds (2 mg) were dissolved in 2 ml of acetone:methanol (1:1) solvent, forming stock solutions of 1000 ppm. The stock solutions were diluted 5× with 0.025% Tween 20 in H2O to obtain a solution at 200 ppm. Lower concentrations (50, 12.5 and 3.13 ppm) were prepared by making sequential 4× dilutions from the 200 ppm solution with a diluent consisting 80 parts of 0.025% Tween 20 in H2O and 20 parts of acetone:methanol (1:1). A hand-held Devilbiss sprayer was used to apply the spray solutions until runoff to both sides of the squash cotyledon leaves. Four plants (4 replications) were used for each concentration of each compound. Reference plants (solvent check) were sprayed with the diluent only. Treated plants were held in a holding room for 3 days at approximately 23° C. and 40% RH before the number of live aphids on each plant was recorded. Insecticidal activity was measured by Corrected % Control using Abbott's correction formula and presented in Table 1: Corrected % Control=100*(X−Y)/X • where X=No. of live aphids on solvent check plants • Y=No. of live aphids on treated plants Insecticidal Test for Green Peach Aphid (Myzus Persicae) in Foliar Spray Assay Cabbage seedlings grown in 3-inch pots, with 2-3 small (3-5 cm) true leaves, were used as test substrate. The seedlings were infested with 20-50 green peach aphids (wingless adult and nymph) 2-3 days prior to chemical application. Four seedlings were used for each treatment. Compounds (2 mg) were dissolved in 2 ml of acetone:methanol (1:1) solvent, forming stock solutions of 1000 ppm. The stock solutions were diluted 5× with 0.025% Tween 20 in H2O to obtain a solution at 200 ppm. Lower concentrations (50, 12.5 and 3.13 ppm) were prepared by making sequential 4× dilutions from the 200 ppm solution with a diluent consisting 80 parts of 0.025% Tween 20 in H2O and 20 parts of acetone: methanol (1:1). A hand-held Devilbiss sprayer was used for spraying a solution to both sides of cabbage leaves until runoff. Reference plants (solvent check) were sprayed with the diluent only. Treated plants were held in a holding room for three days at approximately 23° C. and 40% RH prior to grading. Evaluation was conducted by counting the number of live aphids per plant under a microscope. Insecticidal activity was measured by using Abbott's correction formula: Corrected % Control=100*(X−Y)/X • where X=No. of live aphids on solvent check plants • Y=No. of live aphids on treated plants The Corrected % Control values from assays are given in Table 1.

Experiment [2] concerns cotton aphid (Aphis gossypii). Kind of experiment: Insecticidal test for cotton aphid in foliar spray assay. Type of experiment: in vivo. Set-up: key to CA 50: % control at 50 ppm against cotton aphid in foliar spray tests: A: 90-100; B: 80-89; C: 70-79; D: 60-69; E: 50-59; F: Less than 50; G: Inactive; H: Not tested. The settings on record: foliar spray on squash cotyledons, 3 days, Corrected % Control (Abbott); for pest or weed control at 200 ppm / pest or weed control at 50 ppm: Aphis gossypii, 72 h; for pest or weed control at 200 ppm: read-out: CA 200: % control at 200 ppm against cotton aphid in foliar spray tests; for pest or weed control at 50 ppm: read-out: CA 50: % control at 50 ppm against cotton aphid in foliar spray tests. As to the method:
The compounds identified in the foregoing examples were tested against cotton aphid and green peach aphid using procedures described hereinafter. Insecticidal Test for Cotton Aphid (Aphis Gossypii) in Foliar Spray Assay Squash with fully expanded cotyledon leaves were trimmed to one cotyledon per plant and infested with cotton aphid (wingless adult and nymph) 1 day prior to chemical application. Each plant was examined before chemical application to ensure proper infestation (ca. 30-70 aphids per plant). Compounds (2 mg) were dissolved in 2 ml of acetone:methanol (1:1) solvent, forming stock solutions of 1000 ppm. The stock solutions were diluted 5× with 0.025% Tween 20 in H2O to obtain a solution at 200 ppm. Lower concentrations (50, 12.5 and 3.13 ppm) were prepared by making sequential 4× dilutions from the 200 ppm solution with a diluent consisting 80 parts of 0.025% Tween 20 in H2O and 20 parts of acetone:methanol (1:1). A hand-held Devilbiss sprayer was used to apply the spray solutions until runoff to both sides of the squash cotyledon leaves. Four plants (4 replications) were used for each concentration of each compound. Reference plants (solvent check) were sprayed with the diluent only. Treated plants were held in a holding room for 3 days at approximately 23° C. and 40% RH before the number of live aphids on each plant was recorded. Insecticidal activity was measured by Corrected % Control using Abbott's correction formula and presented in Table 1: Corrected % Control=100*(X−Y)/X • where X=No. of live aphids on solvent check plants • Y=No. of live aphids on treated plants Insecticidal Test for Green Peach Aphid (Myzus Persicae) in Foliar Spray Assay

Turning to `CS(=NC#N)[C@@H]1CCC[C@@H]1c1ccc(Cl)nc1` (relative stereo) [Compound 9, cis-[2-(6-chloropyridin-3-yl)cyclopentyl](methyl)-λ^4-sulfanylidenecyanamide], in experiment [1], the “GPA 50: % control at 50 ppm against green peach aphid in foliar spray tests” value (“GPA 50: % control at 50 ppm” below) is “G” and the pest or weed control at 200 ppm is 60 to 69%. Besides, the “CA 50: % control at 50 ppm against cotton aphid in foliar spray tests” value in experiment [2] (50 ppm) is recorded as “G”. The pest or weed control at 200 ppm in experiment [2] is 60 to 69%.
As to `C/S(Cc1ccc(C(F)(F)F)nc1)=N\C#N` (stereo not drawn) [Compound 1], in experiment [1], the “GPA 50: % control at 50 ppm” value is reported as “G” and the “GPA 200: % control at 200 ppm against green peach aphid in foliar spray tests” value is “G”. For the same compound, in experiment [2] (50 ppm), the pest or weed control at 50 ppm was 60 to 69%. Also, in experiment [2], the pest or weed control at 200 ppm lay in the range of 90 to 100%.
Regarding `CC(c1ccc(C(F)(F)Cl)nc1)/S(C)=N/C#N` (stereo not drawn) [Compound 2, (1-{6-[chloro(difluoro)methyl]pyridin-3-yl}ethyl)(methyl)-λ^4-sulfanylidenecyanamide], the pest or weed control at 50 ppm in experiment [1] and in experiment [2] (50 ppm) was 90 to 100% in each case. The pest or weed control at 200 ppm in experiment [1] and in experiment [2] was 90 to 100% throughout.
As for `CC(c1ccc(C(Cl)(Cl)Cl)nc1)/S(C)=N/C#N` (stereo not drawn) [Compound 3, {1-[6-(trichloromethyl)pyridin-3-yl]ethyl}(methyl)-λ^4-sulfanylidenecyanamide], the pest or weed control at 50 ppm in experiment [1] and in experiment [2] (50 ppm) was 90 to 100% in each case. The pest or weed control at 200 ppm in experiment [1] and in experiment [2] was 90 to 100% each time.
As for `CC(c1cnc(Cl)nc1)/S(C)=N/C#N` (stereo not drawn) [Compound 4, (1E)-[1-(2-chloropyrimidin-5-yl)ethyl](methyl)-λ^4-sulfanylidenecyanamide], the “GPA 50: % control at 50 ppm” value in experiment [1] is “G”. The pest or weed control at 200 ppm in experiment [1] is under 50%; in experiment [2], 90 to 100%. Moreover, the pest or weed control at 50 ppm in experiment [2] (50 ppm) lay within 70 to 79%.
For `C/S(Cc1cnc(C(F)(F)F)s1)=N\C#N` (stereo not drawn) [Compound 5, (1E)-methyl {[2-(trifluoromethyl)-1,3-thiazol-5-yl]methyl}-λ^4-sulfanylidenecyanamide], in experiment [1], the “GPA 50: % control at 50 ppm” value is “G” and the “GPA 200: % control at 200 ppm against green peach aphid in foliar spray tests” value was “G”. Also, the pest or weed control at 50 ppm in experiment [2] (50 ppm) fell in the range of 50 to 59%. Moreover, in experiment [2], the pest or weed control at 200 ppm was in the range of 90 to 100%.
Take `N#C/N=S1/CCC(c2ccc(C(F)(F)F)nc2)C1` (stereo not drawn) [Compound 6, 3-[6-(trifluoromethyl)pyridin-3-yl]tetrahydro-1H-1λ^4-thien-1-ylidenecyanamide]: the pest or weed control at 50 ppm in experiment [1] lay in the range of 50 to 59%; in experiment [2] (50 ppm), 90 to 100%. Also, the pest or weed control at 200 ppm in experiment [1] lay in the range of 70 to 79%; in experiment [2] it was 90 to 100%.
Turning to `C/S(Cc1cnc(Cl)c(F)c1)=N\C#N` (stereo not drawn) [Compound 7, [(5-fluoro-6-chloropyridin-3-yl)methyl](methyl)-λ^4-sulfanylidenecyanamide], the pest or weed control at 50 ppm in experiment [1] was in the range of 60 to 69%; in experiment [2] (50 ppm) it was 90 to 100%. Further, the values for the pest or weed control at 200 ppm in experiment [1] and in experiment [2] were 70 to 79% and 90 to 100%, respectively.
With `C/S(Cc1ccc(C(C)(F)F)nc1)=N\C#N` (stereo not drawn) [Compound 8], the pest or weed control at 50 ppm in experiment [1] fell in the range of 60 to 69%; in experiment [2] (50 ppm), 90 to 100%. For the same compound, the pest or weed control at 200 ppm in experiment [1] and in experiment [2] was 90 to 100% in each case.
